Test results from patent publication US11834663B2, “Fibrotic treatment” (Monash University, priority 2015, dated 2023).
Marks after values point to notes of the source that are not given here.

Test system: cardiac cytokine protein levels
Assay: Cardiac cytokine protein levels by Bio-Plex multiplex assay in aged WT mice
Assay type: in vivo, mouse
Description: There are 8 different sets of in vivo experiments in this study: • A) Phenotypic characterisation of the heart and blood vessels in global IRAP knockout mice and their WT controls treated for 4 weeks with Angiotensin (Ang) II (800 ng/kg/min; s.c.) where mouse hearts and blood vessels were compared to tissue obtained from young WT and IRAP^−/− mice treated with saline. • B) Prevention of Ang II-induced changes in the cardiovascular system following IRAP inhibitor treatment. In the prevention model, WT mice were treated with Ang II (800 ng/kg/min; s.c.)±the IRAP inhibitor (HFI-419; 500 ng/kg/min for 28 days) or HFI-vehicle (1 DMSO:3 HBC). • C) Phenotypic characterisation of the aged heart, kidney and blood vessels in the global IRAP knockout mice where aged WT and IRAP^−/− mouse hearts, kidneys and blood vessels were compared to tissue obtained from young WT and IRAP^−/− mice. • D) Reversal of the age-induced changes in the cardiovascular system following IRAP inhibitor treatment. In the reversal model, aged WT mice were treated with either saline, IRAP inhibitor (HFI-419 at 500 ng/kg/min; compound 1 at 500 ng/kg/min; compound 2 at 50 ng/kg/min) or HFI-vehicle (1 DMSO: 3 HBC) for 4 weeks. • E) Prevention of ischemic-reperfusion injury in isolated hearts taken from aged global IRAP knockout mice and aged IRAP inhibitor (HFI-419 at 500 ng/kg/min; s.c.) treated WT mice compared to age-matched vehicle-treated (1 DMSO:3 HBC; s.c.) WT controls. • F) Phenotypic characterization of cardiac function using echocardiography in the aged global IRAP knockout mice compared to aged and young WT mice. • G) Phenotypic characterization of liver steatosis in IRAP knockout mice in a high fat diet (HFD) model. • H) Reversal of the salt-induced fibrosis in the liver following IRAP inhibitor treatment.
The levels of cytokines in the heart ventricles and apex were detected by using the Bio-Plex multiplex assay (Bio-rad). Tissues were snap-frozen and homogenized with a Bio-Plex cell lysis kit (Biorad) according to the manufacturer's instructions. Briefly, tissues were washed once with 300 μl of wash buffer and homogenized in lysing solutions using Tissue Lyser (Qiagen). Samples were left on ice for 30 min and centrifuged at 6,000×g for 20 min at 4° C. Supernatant was collected and protein content was determined using Biorad protein assay (Biorad). 500 μg/ml of protein were used to detect the levels of cytokines. A panel of Bio-Plex Pro™ Mouse Cytokine Standard 23-Plex, Group I (IL-1α, IL-1β, IL-2, IL-3, IL-4, IL-5, IL-6, IL-9, IL-10, IL-12(p40), IL-12(p70), IL-13, IL-17A, Eotaxin, G-CSF, GM-CSF, IFN-γ, KC, MCP-1, MIP-1α, MIP-1β, RANTES, TNFα) was used, containing 23 different antibodies covalently coupled to the beads. 50 μl of sample (500 μg/ml) or known standard (200-900 μg/ml) was added to wells of a 96-well plate which was pre-coated with the diluted coupled beads specific for each antibody and incubated at RT with shaking at 300 RPM for 30 min in the dark. After washing away any unbound substances, biotinylated detection antibodies were added to create a sandwich complex and the plate was incubated for 30 min with shaking at 300 RPM in the dark at RT. Following three washes, the final detection complex was formed with the addition of streptavidin-phycoerythrin conjugate and incubated for 10 min in the dark at RT with shaking at 300 RPM. Following 3 washes with […], beads were resuspended in 125 μl of assay buffer. The samples were read using Bio-Plex MAGPIX Multiplex Reader (Bio-Plex Suspension System). Data were calculated by the Bio-Plex Manager software.

[1] = hearts of HFI-419-treated aged WT mice, mean ± s.e.m
[2] = relative ratio to mean of vehicle-treated aged WT

## CCOC(=O)C1=C(NC(C)=O)Oc2cc(O)ccc2C1c1cccnc1 (centres unmarked) [HFI-419]
Aged WT mice, HFI-419 4 weeks vs vehicle, FIG. 14, Table 1
  pro-inflammatory cytokines in heart: did not increase
Aged WT mice, HFI-419 4 weeks vs vehicle, Table 1
  anti-inflammatory cytokines in heart, including IL-4, IL-9 and IL-12p40: marked increases
[1]
  CCL-3 (MIP-1a) cardiac protein level: 2.493 ± 0.35 pg/mL
  CCL-4 (MIP-1b) cardiac protein level: 92.74 ± 10.92 pg/mL
  CCL-5 (RANTES) cardiac protein level: 2.839 ± 0.21 pg/mL
  CCL-11 (Eotaxin) cardiac protein level: 140.3 ± 8.18 pg/mL
  CXCL-1 (KC) cardiac protein level: 6.859 ± 0.34 pg/mL
  G-CSF cardiac protein level: 1.912 ± 0.08 pg/mL
  GM-CSF cardiac protein level: 38.18 ± 1.37 pg/mL
  IL-1a cardiac protein level: 7.61 ± 0.56 pg/mL
  IL-1b cardiac protein level: 69.83 ± 3.75 pg/mL
  IL-4 cardiac protein level: 2.676 ± 0.06 pg/mL
  IL-5 cardiac protein level: 3.96 ± 0.14 pg/mL
  IL-6 cardiac protein level: 2.766 ± 0.15 pg/mL
  IL-9 cardiac protein level: 557.8 ± 31.03 pg/mL
  IL-10 cardiac protein level: 40.13 ± 1.36 pg/mL
  IL-12 p40 cardiac protein level: 4.887 ± 0.28 pg/mL
  IL-12 p70 cardiac protein level: 23.49 ± 1.83 pg/mL
  IL-13 cardiac protein level: 90.19 ± 2.93 pg/mL
  IL-17A cardiac protein level: 8.068 ± 0.29 pg/mL
  L-2 cardiac protein level: 5.849 ± 0.78 pg/mL
  M-CSF (IL-3) cardiac protein level: 1.562 ± 0.11 pg/mL
  TNF-a cardiac protein level: 219.7 ± 9.76 pg/mL
[2]
  CCL-3 (MIP-1a) Ratio of HFI to Vehicle: 0.88
  CCL-4 (MIP-1b) Ratio of HFI to Vehicle: 0.78
  CCL-5 (RANTES) Ratio of HFI to Vehicle: 1.03
  CCL-11 (Eotaxin) Ratio of HFI to Vehicle: 1.29
  CXCL-1 (KC) Ratio of HFI to Vehicle: 1.18
  G-CSF Ratio of HFI to Vehicle: 1.02
  GM-CSF Ratio of HFI to Vehicle: 0.99
  IL-1a Ratio of HFI to Vehicle: 1.03
  IL-1b Ratio of HFI to Vehicle: 1.16
  IL-4 Ratio of HFI to Vehicle: 1.61**
  IL-5 Ratio of HFI to Vehicle: 0.98
  IL-6 Ratio of HFI to Vehicle: 0.98
  IL-9 Ratio of HFI to Vehicle: 1.19*
  IL-10 Ratio of HFI to Vehicle: 1.09
  IL-12 p40 Ratio of HFI to Vehicle: 1.31
  IL-12 p70 Ratio of HFI to Vehicle: 0.88
  IL-13 Ratio of HFI to Vehicle: 0.96
  IL-17A Ratio of HFI to Vehicle: 0.95
  L-2 Ratio of HFI to Vehicle: 1.12
  M-CSF (IL-3) Ratio of HFI to Vehicle: 1.02
  TNF-a Ratio of HFI to Vehicle: 0.92
